For one series, the system named is miR335. Put plainly: miR335 inhibitor given to mice on 60% high fat diet. The format is in vivo. To be noted: 60% HFD, 5 mg/kg IP, vs control inhibitor. As to the method:
FIG. 14 is a schematic outlining time course of an experiment comparing animals administered miR335 inhibitors to control, on a high fat diet. The mice were injected 5 mg/kg of miR335 inhibitor or its control twice a week for 4 weeks. Nonproprietary in vivo grade miRNA inhibitor purchased from Qiagen/Exiqon. Sequence: […] (SEQ ID NO:3; 100% complementary to […]).
The mice are subject to 6 weeks of 60% HFD. 5 mg/kg of miR335 inhibitor and its control was given to mice by IP injection. 2 weeks after, HFD was started.
The mir335−/− mice and Apoe−/− mice have been previously described. All animals were maintained on a C57BL/6 background. For mice fed a high-fat diet, mice were administered a 60% fat diet (TD-06414, Envigo) or 40% fat diet with 1.25% added cholesterol (DI2108C, Research Diet) for designated times before tissue and serum were collected.
Frozen 10-μm cryosections from the liver were washed with distilled water for 10 min. After the washing, sections were put into Eosin solution for 2 min. After rinsing with distilled water, sections were put into Hematoxylin solution for 5 min. After washing with distilled water for 15 min, the slides were mounted with DPX mountant (Sigma). Sections were imaged using bright-field microscopy.
Plasma was assessed for alanine aminotransferase (ALT) (Pointe Scientific) following the manufacturer's instructions. Briefly, 20 μl of each plasma sample was added in the 200 μl of the reagent and incubated at 37° C. After 1 min incubation, samples were put on the plate and the plate was read at 340 nm with a microplate reader (BioTek Synergy 2). The ALT values were calculated according to the manufacturer's instructions.

The next series concerns MEST. In words: Relative mRNA expression of MEST by RT-PCR in endothelial cells. The format is cell-based, human. As for the experimental part: (§1) Human umbilical vein endothelial cells (HUVECs) were cultured in EBM-2 (Lonza) and THP-1 monocytes (ATCC) were grown in RPM. Human coronary microvascular endothelial cells (HCMECs) (Lonza) were cultured in EBM (Lonza). For experimental treatments, HUVECs and HMVECs (passages 3 to 8) were grown to 70-90% confluence. Simvastatin (Sigma) was activated to its active form as previously described. Atorvastatin (Sigma) was solubilized in DMSO and used at 10 μM concentration. Transient transfection of plasmids was performed with Fugene HD (Promega) according to the manufacturer's instructions. For small interfering RNA (Invitrogen) and miR-335-5p mimic (Dharmacon) transfections, each oligonucleotide formulation and respective controls (control siRNA: 12935112 (Invitrogen), miRNA mimic control: 0010000105 (Dharmacon), 50 nM) were complexed with Lipofectamine RNAiMAX (Invitrogen) according to the manufacturer's instructions.
(§2) Total RNA was extracted with the miRNeasy Mini kit (Qiagen). […] RT-PCR was performed with TaqMan probes for genes and miRNAs (ThermoFisher), or SYBR green assays for genes (Bio-Rad). All miRNA data were normalized to the internal control small RNAs U6 for human samples. For the mRNA samples, ribosomal 18S was used as an internal control. Individual RT-PCRs were performed on a […] (Bio-Rad) according to the manufacturer's instructions.

The subject of another series is CHFR. Put plainly: Relative mRNA and protein expression of CHFR (quantitative PCR, western blot).
The next series has as its system miR-335-5p. Put plainly: Relative expression of miR-335-5p by RT-PCR in endothelial cells. In kind it is cell-based, human. As to the method: as §1, §2

The text below walks through data of patent publication US20220008452A1, “COMPOSITIONS AND METHODS FOR TREATING OR PREVENTING NASH, NAFLD, DIABETES, ATHEROSCLEROSIS, AND/OR OBESITY” (YALE UNIVERSITY, priority 2018, published 2022).

As to “miR335 inhibitor: Nonproprietary in vivo grade miRNA inhibitor purchased from Qiagen/Exiqon; sequence ACATTTTTCGTTATTGCTCTTGA (SEQ ID NO:3), complementary to miR-335-5p (in vivo grade miRNA inhibitor from Exiqon, chemistry not given here, further chemistry not given here)”, in the series on miR335, the “elevation in serum ALT associated with high fat diet” value is given as “attenuated”, the “fat accumulation in the liver” value is recorded as “attenuated”, the liver histology result is listed as “preserved” and the liver weight entry is listed as “decreased”. In addition, the “weight gain associated with a high fat diet” value in the series with miR335 is recorded as “suppressed”.
`CC(C)c1c(C(=O)Nc2ccccc2)c(-c2ccccc2)c(-c2ccc(F)cc2)n1CC[C@@H](O)C[C@@H](O)CC(=O)O` [atorvastatin]: the MEST expression result in the series on MEST (HCMECs) and in the series with MEST (HUVECs) was “significantly downregulated” in each case. Further, the “CHFR mRNA and protein expression” value in the series on CHFR (HCMECs) and with CHFR (HUVECs) was “significantly upregulated” in each case. The miR-335 expression entry in the series on miR-335-5p (HCMECs) and with miR-335-5p (HUVECs) was “significant decrease” each time.
